Source: patent US20230241075A1, “IRAK DEGRADERS AND USES THEREOF” (Kymera Therapeutics, Inc., priority 2020, published 2023)
Entries after “also recorded” stand apart in the source; their conditions may differ.

System: TLR7/8 agonist R848-stimulated monocytes
Test: Ex-vivo R848-stimulated healthy monocytes, RNA-seq of HS-overexpressed proinflammatory transcripts
Type: cell-based, human
Settings: healthy donor monocytes (N=3), 500 nM overnight, then R848, RNA-seq at 2 hours

Cn1c(=O)n(C2CCC(=O)NC2=O)c2cccc(C#CCOC3CCN(C[C@H]4CC[C@H](n5cc(NC(=O)c6cnn7ccc(N8C[C@H]9C[C@@H]8CO9)nc67)c(C(F)F)n5)CC4)CC3)c21 (stereo partly shown) [Degrader 2]
effect on TLR-mediated (R848) induction of HS-overexpressed proinflammatory transcripts: inhibits TLR-mediated induction of HS-overexpressed proinflammatory transcripts; also recorded: inhibits TLR-stimulated upregulation of HS-overexpressed inflammatory genes
